In patent US11092602B2, “Methods and compositions relating to proteasome inhibitor resistance” (Whitehead Institute for Biomedical Research, priority 2015, dated 2021):

Tests used:
[1] = system: relapsed multiple myeloma; assay: Phase 2 and 3 clinical trials of bortezomib in relapsed multiple myeloma, stratified by sigma score; format: in vivo, human
Description: We analyzed gene expression data from 135 patients with relapsed multiple myeloma who participated in Phase II or III trials of bortezomib (˜2007; Mulligan, G., Mitsiades, et al. (2007) Gene expression profiling and correlation with outcome in clinical trials of the proteasome inhibitor bortezomib. Blood 109, 3177-3188) and determined the sigma score for each cancer. The sigma score for each cancer (prior to treatment) was computed by comparing the expression of each 19S subunit (except PSMC4, which was not included in the analysis for technical reasons) in each cancer with the average expression of that subunit in the total set of cancers (reference level) and determining the number of standard deviations by which each expression level differed from the reference level.
Methods details: re-treatment gene expression data from relapsed multiple myeloma patients undergoing clinical trials with bortezomib were downloaded from GSE9782 (34). Gene expression data was RMA normalized and log transformed. Sigma scores were calculated from all probes. […] For each group, the time to relapse from bortezomib treatment was plotted as a Kaplan-Meier plot. P-value was calculated using Wilcoxon test.

T47D cells = assay: Selleck anti-cancer compound library screen, PSMD2 KD versus control T47D cells (resazurin); format: cell-based, human; details: 4 concentrations, 72 hours
Experimental: After 48 hours the cells were collected, counted, and plated at 1000 cells/well in 384 well plates in duplicates for each cell line. Compounds from the Selleck Chemicals anti-cancer compound library β49 drugs in 4 concentrations; […]) were pinned the next day and viability was measured after 72 hours by the reduction of Resazurin (Ex=530 nm, Em=590 nm).
The effect of each drug on viability of cells was calculated by averaging the duplicate experiments. The data is plotted in FIG. 16 as the log2 of the ratio of viability of PSMD2 KD versus control cells (log2 (shPSMD2/Control)).

β5-subunit = β5-subunit (Homo sapiens, UniProt P28074); details: cited from earlier work
[2] = system: stress-response transcripts; assay: RNA-seq gene expression profiling of PSMD2 knockdown and control (shLacZ) cells; format: cell-based, human; details: control cells; 12 nM bortezomib for 24 hours
Experimental: Sequence data confirmed that PSMD2 mRNA levels were reduced by ˜50% in both lines. We examined basal gene expression and the effects of bortezomib treatment on these cells, comparing them to cells carrying a control lacZ shRNA construct.
RNA was extracted from triplicate samples and RNA libraries were prepared for sequencing by NEBNext Ultra RNA Library Prep Kit for Illumina (New England BioLabs, Ipswich, Mass.), including the removal of large and small RNA, synthesis of cDNA, and construction of cDNA libraries. Libraries were barcoded using NEBNext Multiplex Oligos for Illumina (NEB). Libraries were sequenced using Illumina HiSeq 2500, with paired-end 100 bp reads. Paired-end reads were aligned to UCSC human transcriptome 19 (hg19) using TopHat (Bowtie v2.0.9). Alignment quality and read distribute was assessed via SAMtools (v0.1.19) (Li et al., 2009). Transcript assembly was conducted using cufflinks (v2.2.1). […] RNA sequencing data have been deposited in the NCBI Sequence Read Archive under accession number: PRJNA281613.
Genes differentially expressed upon PSMD2 knockdown in either the presence or absence of bortezomib treatment were determined as follows (FIG. 3E): For each gene in the matrix described above, the values were normalized to the average expression in the LacZ control cells. […]

[3] = system: protein degradation and protein synthesis; assay: Translation and degradation assays (3H-phenylalanine); format: cell-based, human; details: 10 nM bortezomib
Experimental: Next we examined the impact of reducing PSMD2 levels on protein degradation and protein synthesis. Cells were labeled with tritiated-phenylalanine for 24 hrs. We then separately measured the rates at which labeled proteins were degraded through the proteasome and through the lysosome.
To measure rates of protein synthesis, cells were pulse labeled with tritiated-phenylalanine for 1 hr.
For measuring overall rate of synthesis, cells were pretreated with 10 nM Bortezomib for 20 hours, then incorporation of ^3H-phenylalanine was measured for 1 h. The rate of synthesis was described as counts incorporated into cell proteins per hour and per μg of total cell proteins. When working with T47D cells, knockdown of PSMD2 was induced for 3 days with doxycycline before bortezomib treatment. For measuring overall rates of protein degradation, pulse-labeling with ^3H-phenylalanine for 24 hours was done before the bortezomib treatment as previously described (Zhao et al., 2007).

[4] = cells with transiently reduced PSMD2, 20 hours

## CC(C)C[C@H](NC(=O)[C@H](Cc1ccccc1)NC(=O)c1cnccn1)B(O)O [bortezomib]
[1]; 34 patients with reduced expression of at least one 19S subunit versus patients without, p-value=0.0086
  time to progression: shortened time to progression
[1]; patients with 3-Sigma disease versus sigma score less than 3
  progression-free survival: Reduced Progression-Free Survival
[1]; patients with reduced expression of 19S proteasome subunit(s)
  effectiveness over dexamethasone control: no significant effectiveness over the dexamethasone control
T47D cells
  selective effect on viability, PSMD2 KD versus control cells (log2 (shPSMD2/Control)): selectively reduce viability of control cells versus PSMD2 KD cells
β5-subunit
  potency of inhibition of the β5-subunit: low nanomolar
[2]
  transcriptional response: sharp increase in stress-response transcripts
[3]; 20-hour treatment
  rates of proteolysis by the lysosome: remained unchanged
[3]; [4]
  inhibition of proteasome degradation: strongly counteracted
  suppression of protein synthesis: strongly counteracted
[3]; control cells, 20-hour treatment
  rate of protein degradation: sharply decreased
[3]; control cells, 20 hours
  rate of protein synthesis: sharply decreased
